Experiments:
Type in all cases: in vivo
[1] = tested on: BOILF = Spermacoce latifolia; assay: Field weed control, early post-emergence application; details: gai/ha Imazapyr 72, Imazapyr + imazapic 70, Glyphosate 540
[2] = tested on: COMBE = Commelina benghalensis; assay: as above; details: gai/ha Imazapyr 72, Imazapyr + imazapic 70, Glyphosate 540
[3] = tested on: EPHHL = Euphorbia heterophylla; assay: as above; details: gai/ha Imazapyr 72, Imazapyr + imazapic 70, Glyphosate 540
[4] = tested on: SIDRH = Sida rombifolia; assay: as above; details: gai/ha Imazapyr 72, Imazapyr + imazapic 70, Glyphosate 540
[5] = tested on: RCHBR = Richardia brasiliensis; assay: as above; details: gai/ha Imazapyr 72, Imazapyr + imazapic 70, Glyphosate 540
[6] = tested on: IPOGR = Ipomoea grandifolia; assay: as above; details: gai/ha Imazapyr 72, Imazapyr + imazapic 70, Glyphosate 540
[7] = tested on: BRAPL = Brachiaria plantaginea; assay: Field weed control, burn down application; details: burn down 5 days before planting, g ai/ha Glyphosate 1080, Imazapic 70, Imazapic + imazapyr 70
Description: (§3) All the procedures from planting to harvest were the same for all three locations. The herbicides were applied at burn down five days before the soybean planting.
(§4) A completely randomized block design with three replications was used.
(§5) Imidazolinone-tolerant soybean derived from event 127 was planted 5 cm deep at population of 380,000 seeds/ha in 50 cm row spacing. The imidazolinones herbicides were applied with a nonionic adjuvant, Dash, at 0.25% v/v. A CO^2 backpack sprayer with 80015 low pressure nozzles delivering 170 l/ha at 190 kpa was used for all herbicide applications (Table 18).
(§6) Crop injury was assessed 15 and 30 days after planting (DAP) based on a 0 to 100 scale where 0 is no injury and 100 is crop death. Herbicide efficacy was assessed at 15, 30 and 60 DAP based on a 0 to 100 scale, where 0 is no control and 100 is total control.

[8] = tested on: DIGHO = Digitaria horizontalis; assay: Field weed control, burn down application; details: burn down 5 days before planting, g ai/ha Glyphosate 1080, Imazapic 70, Imazapic + imazapyr 70
Description: as §3, §4, §5, §6

[9] = tested on: COMBE = Commelina benghalensis; assay: Field weed control, burn down application; details: burn down 5 days before planting, g ai/ha Glyphosate 1080, Imazapic 70, Imazapic + imazapyr 70
Description: as §3, §4, §5, §6

[10] = tested on: EPHHL = Euphorbia heterophylla; assay: Field weed control, burn down application; details: burn down 5 days before planting, g ai/ha Glyphosate 1080, Imazapic 70, Imazapic + imazapyr 70
Description: as §3, §4, §5, §6

[11] = tested on: IPOGR = Ipomoea grandifolia; assay: Field weed control, burn down application; details: burn down 5 days before planting, g ai/ha Glyphosate 1080, Imazapic 70, Imazapic + imazapyr 70
Description: as §3, §4, §5, §6

[12] = tested on: GASPA = Galinsoga parviflora; assay: Field weed control, burn down application; details: burn down 5 days before planting, g ai/ha Glyphosate 1080, Imazapic 70, Imazapic + imazapyr 70
Description: as §3, §4, §5, §6

[13] = tested on: BIDPI = Bidens pilosa; assay: Field weed control, burn down application; details: burn down 5 days before planting, g ai/ha Glyphosate 1080, Imazapic 70, Imazapic + imazapyr 70
Description: as §3, §4, §5, §6

[14] = tested on: glyphosate resistant corn; assay: Greenhouse injury rate, postemergence application; details: 14 DAT
Description: (§1) Greenhouse studies were conducted to determine whether imidazolinone herbicides could be used in the control of undesired glyphosate tolerant weeds and crops growing in a cultivated area. […] Plants were maintained in a greenhouse with overhead watering.
(§2) Postemergence sprays were conducted at the 2-true leaf stage for corn and soybean and at the 9-true leaf stage for horseweed. […] The percent overall injury rate was visually determined 14 days after treatment (DAT) and 25 days after treatment (DAT). […] The results of the postemergence tests are summarized in Table 20 and the results of the pre-emergence study are summarized in Table 21. Results are provided as averages of the 5 individual plants.

[15] = tested on: glyphosate resistant horseweed; assay: Greenhouse injury rate, postemergence application
Description: as §1, §2

[16] = tested on: glyphosate resistant soybean; assay: Greenhouse injury rate, postemergence application; details: 14 DAT
Description: as §1, §2

[17] = tested on: glyphosate resistant corn; assay: Greenhouse injury rate, preemergence application; details: 14 DAT
Description: as §1, §2

[18] = tested on: glyphosate resistant horseweed; assay: Greenhouse injury rate, preemergence application; details: 25 DAT
Description: as §1, §2

[19] = tested on: glyphosate resistant soybean; assay: Greenhouse injury rate, preemergence application; details: 14 DAT
Description: as §1, §2

[20] = tested on: CYPRO = Cyperus rotundus; assay: Field weed control, burn down application; details: burn down 5 days before planting, g ai/ha Glyphosate 1080, Imazapic 70, Imazapic + imazapyr 70
Description: as §3, §4, §5, §6

[21] = tested on: CYPRO = Cyperus rotundus; assay: Field weed control, early post-emergence application; details: gai/ha Imazapyr 72, Imazapyr + imazapic 70, Glyphosate 540

Structure (SMILES): O=C(O)CNCP(=O)(O)O [Glyphosate, glyphosate]
- Efficacy ([1]; 15 DAT): 82%
- Efficacy ([1]; 30 DAT): 75%
- Efficacy ([1]; 60 DAT): 68%
- Efficacy ([2]; 15 DAT): 70%
- Efficacy ([2]; 30 DAT): 61%
- Efficacy ([2]; 60 DAT): 50%
- Efficacy ([3]; 15 DAT): 85%
- Efficacy ([3]; 30 DAT): 77%
- Efficacy ([3]; 60 DAT): 72%
- Efficacy ([4]; 15 DAT): 82%
- Efficacy ([4]; 30 DAT): 77%
- Efficacy ([4]; 60 DAT): 70%
- Efficacy ([5]; 15 DAT): 78%
- Efficacy ([5]; 30 DAT): 57%
- Efficacy ([6]; 15 DAT): 90%
- Efficacy ([6]; 30 DAT): 87%
- Efficacy ([6]; 60 DAT): 73%
- Efficacy (%) ([7]; 60 DAT): 25%
- Efficacy (%) ([8]; 30 DAT): 60%
- Efficacy (%) ([8]; 60 DAT): 41%
- Efficacy (%) ([9]; 30 DAT): 38%
- Efficacy (%) ([9]; 60 DAT): 22%
- Efficacy (%) ([10]; 30 DAT): 15%
- Efficacy (%) ([10]; 60 DAT): 7%
- Efficacy (%) ([11]; 30 DAT): 23%
- Efficacy (%) ([11]; 60 DAT): 15%
- Efficacy (%) ([12]; 30 DAT): 19%
- Efficacy (%) ([12]; 60 DAT): 12%
- Efficacy (%) ([13]; 30 DAT): 25%
- Efficacy (%) ([13]; 60 DAT): 21%
- Average Overall Injury (%) ([14]; 774 g ae/ha): 1%
- Average Overall Injury (%) ([15]; 14 DAT, 774 g ae/ha): 34%
- Average Overall Injury (%) ([15]; 25 DAT, 774 g ae/ha): 16%
- Average Overall Injury (%) ([16]; 774 g ae/ha): 1%
- Average Overall Injury (%) ([17]; 774 g ae/ha): 0%
- Average Overall Injury (%) ([18]; 774 g ae/ha): 0%
- Average Overall Injury (%) ([19]; 774 g ae/ha): 0%

Structure (SMILES): Cc1cnc(C2=NC(=O)C(C)(C(C)C)N2)c(C(=O)O)c1 (stereo not drawn) [Imazapic, imazapic]
- Efficacy (%) ([7]; 30 DAT): 85%
- Efficacy (%) ([7]; 60 DAT): 79%
- Efficacy (%) ([8]; 30 DAT): 95%
- Efficacy (%) ([8]; 60 DAT): 86%
- Efficacy (%) ([20]; 30 DAT): 88%
- Efficacy (%) ([20]; 60 DAT): 76%
- Efficacy (%) ([9]; 30 DAT): 75%
- Efficacy (%) ([9]; 60 DAT): 64%
- Efficacy (%) ([10]; 30 DAT): 98%
- Efficacy (%) ([10]; 60 DAT): 86%
- Efficacy (%) ([11]; 30 DAT): 75%
- Efficacy (%) ([11]; 60 DAT): 73%
- Efficacy (%) ([12]; 30 DAT): 84%
- Efficacy (%) ([12]; 60 DAT): 78%
- Efficacy (%) ([13]; 30 DAT): 79%
- Efficacy (%) ([13]; 60 DAT): 73%
- Average Overall Injury (%) ([14]; 20 g ai/ha): 83%
- Average Overall Injury (%) ([14]; 40 g ai/ha): 87%
- Average Overall Injury (%) ([14]; 80 g ai/ha): 93%
- Average Overall Injury (%) ([14]; 160 g ai/ha): 99%
- Average Overall Injury (%) ([14]; 240 g ai/ha): 99%
- Average Overall Injury (%) ([15]; 14 DAT, 20 g ai/ha): 56%
- Average Overall Injury (%) ([15]; 14 DAT, 40 g ai/ha): 59%
- Average Overall Injury (%) ([15]; 14 DAT, 80 g ai/ha): 80%
- Average Overall Injury (%) ([15]; 14 DAT, 160 g ai/ha): 92%
- Average Overall Injury (%) ([15]; 14 DAT, 240 g ai/ha): 94%
- Average Overall Injury (%) ([15]; 25 DAT, 20 g ai/ha): 27%
- Average Overall Injury (%) ([15]; 25 DAT, 40 g ai/ha): 28%
- Average Overall Injury (%) ([15]; 25 DAT, 80 g ai/ha): 69%
- Average Overall Injury (%) ([15]; 25 DAT, 160 g ai/ha): 77%
- Average Overall Injury (%) ([15]; 25 DAT, 240 g ai/ha): 88%
- Average Overall Injury (%) ([16]; 20 g ai/ha): 35%
- Average Overall Injury (%) ([16]; 40 g ai/ha): 61%
- Average Overall Injury (%) ([16]; 80 g ai/ha): 71%
- Average Overall Injury (%) ([16]; 160 g ai/ha): 87%
- Average Overall Injury (%) ([16]; 240 g ai/ha): 96%
- Average Overall Injury (%) ([17]; 20 g ai/ha): 32%
- Average Overall Injury (%) ([17]; 40 g ai/ha): 38%
- Average Overall Injury (%) ([17]; 80 g ai/ha): 67%
- Average Overall Injury (%) ([17]; 160 g ai/ha): 86%
- Average Overall Injury (%) ([17]; 240 g ai/ha): 90%
- Average Overall Injury (%) ([18]; 20 g ai/ha): 65%
- Average Overall Injury (%) ([18]; 40 g ai/ha): 90%
- Average Overall Injury (%) ([18]; 80 g ai/ha): 99%
- Average Overall Injury (%) ([18]; 160 g ai/ha): 99%
- Average Overall Injury (%) ([18]; 240 g ai/ha): 99%
- Average Overall Injury (%) ([19]; 20 g ai/ha): 12%
- Average Overall Injury (%) ([19]; 40 g ai/ha): 39%
- Average Overall Injury (%) ([19]; 80 g ai/ha): 60%
- Average Overall Injury (%) ([19]; 160 g ai/ha): 70%
- Average Overall Injury (%) ([19]; 240 g ai/ha): 81%

Structure (SMILES): CC(C)C1(C)N=C(c2ncccc2C(=O)O)NC1=O (stereo not drawn) [imazapyr]
- Efficacy ([21]; 15 DAT): 95%
- Efficacy ([21]; 30 DAT): 87%
- Efficacy ([21]; 60 DAT): 81%
- Efficacy ([1]; 15 DAT): 88%
- Efficacy ([1]; 30 DAT): 83%
- Efficacy ([1]; 60 DAT): 75%
- Efficacy ([2]; 15 DAT): 93%
- Efficacy ([2]; 30 DAT): 87%
- Efficacy ([2]; 60 DAT): 80%
- Efficacy ([3]; 15 DAT): 92%
- Efficacy ([3]; 30 DAT): 85%
- Efficacy ([3]; 60 DAT): 83%
- Efficacy ([4]; 15 DAT): 94%
- Efficacy ([4]; 30 DAT): 87%
- Efficacy ([4]; 60 DAT): 81%
- Efficacy ([5]; 15 DAT): 86%
- Efficacy ([5]; 30 DAT): 83%
- Efficacy ([5]; 60 DAT): 77%
- Efficacy ([6]; 15 DAT): 96%
- Efficacy ([6]; 30 DAT): 91%
- Efficacy ([6]; 60 DAT): 85%
- Average Overall Injury (%) ([14]; 20 g ai/ha): 96%
- Average Overall Injury (%) ([14]; 40 g ai/ha): 98%
- Average Overall Injury (%) ([14]; 80 g ai/ha): 99%
- Average Overall Injury (%) ([14]; 120 g ai/ha): 100%
- Average Overall Injury (%) ([14]; 240 g ai/ha): 100%
- Average Overall Injury (%) ([15]; 14 DAT, 20 g ai/ha): 70%
- Average Overall Injury (%) ([15]; 14 DAT, 40 g ai/ha): 79%
- Average Overall Injury (%) ([15]; 14 DAT, 80 g ai/ha): 90%
- Average Overall Injury (%) ([15]; 14 DAT, 120 g ai/ha): 96%
- Average Overall Injury (%) ([15]; 14 DAT, 240 g ai/ha): 97%
- Average Overall Injury (%) ([15]; 25 DAT, 20 g ai/ha): 44%
- Average Overall Injury (%) ([15]; 25 DAT, 40 g ai/ha): 73%
- Average Overall Injury (%) ([15]; 25 DAT, 80 g ai/ha): 97%
- Average Overall Injury (%) ([15]; 25 DAT, 120 g ai/ha): 99%
- Average Overall Injury (%) ([15]; 25 DAT, 240 g ai/ha): 99%
- Average Overall Injury (%) ([16]; 20 g ai/ha): 75%
- Average Overall Injury (%) ([16]; 40 g ai/ha): 96%
- Average Overall Injury (%) ([16]; 80 g ai/ha): 97%
- Average Overall Injury (%) ([16]; 120 g ai/ha): 98%
- Average Overall Injury (%) ([16]; 240 g ai/ha): 99%
- Average Overall Injury (%) ([17]; 20 g ai/ha): 37%
- Average Overall Injury (%) ([17]; 40 g ai/ha): 47%
- Average Overall Injury (%) ([17]; 80 g ai/ha): 65%
- Average Overall Injury (%) ([17]; 120 g ai/ha): 81%
- Average Overall Injury (%) ([17]; 240 g ai/ha): 91%
- Average Overall Injury (%) ([18]; 20 g ai/ha): 46%
- Average Overall Injury (%) ([18]; 40 g ai/ha): 63%
- Average Overall Injury (%) ([18]; 80 g ai/ha): 84%
- Average Overall Injury (%) ([18]; 120 g ai/ha): 96%
- Average Overall Injury (%) ([18]; 240 g ai/ha): 88%
- Average Overall Injury (%) ([19]; 20 g ai/ha): 41%
- Average Overall Injury (%) ([19]; 40 g ai/ha): 43%
- Average Overall Injury (%) ([19]; 80 g ai/ha): 66%
- Average Overall Injury (%) ([19]; 120 g ai/ha): 83%
- Average Overall Injury (%) ([19]; 240 g ai/ha): 87%
